Activity calls are given as the source filed them. The calls are words filed in the database; no cut-off is given here.
Columns and labels:
[1] = Anti-hepatic fibrosis activity in human LX2 cells assessed as inhibition of COL1A1 promoter activity at 25 micromol/L by luciferase reporter assay relative to control; type: functional; details: LX-2, dose 25 µmol/L
LX-2 [2] = assay: Anti-hepatic fibrosis activity in human LX2 cells assessed as inhibition of TGF-beta1 induced COL1A1 mRNA expression at 3 micromol/L incubated for 24 hrs by qPCR analysis; type: functional, cell-based; details: dose 3.0 µmol/L
LX-2 [3] = assay: Anti-hepatic fibrosis activity in human LX2 cells assessed as inhibition of TGFbeta1-induced TIMP-1 protein expression at 3 uM incubated for 24 hrs by western blot analysis; type: functional, cell-based
LX-2 [4] = assay: Anti-hepatic fibrosis activity in human LX2 cells assessed as inhibition of TGFbeta1-induced FN protein expression at 3 uM incubated for 24 hrs by western blot analysis; type: functional, cell-based
LX-2 [5] = assay: Anti-hepatic fibrosis activity in human LX2 cells assessed as inhibition of TGFbeta1-induced alpha-SMA protein expression at 3 uM incubated for 24 hrs by western blot analysis; type: functional, cell-based
LX-2 [6] = assay: Anti-hepatic fibrosis activity in human LX2 cells assessed as inhibition of TGFbeta1-induced COL1A1 protein expression at 3 uM incubated for 24 hrs by western blot analysis; type: functional, cell-based

Structure (SMILES)	inhibition at 25 µM [1]	other results
COc1ccc(C(F)(F)F)cc1NC(=O)Nc1ccccc1NS(=O)(=O)c1cccc([N+](=O)[O-])c1	20.2%	–
O=[N+]([O-])c1cccc(S(=O)(=O)Nc2ccccc2CNc2cc(F)ccc2Cl)c1	29.8%	–
O=C(Nc1ccc(Cl)c(Cl)c1)Nc1ccccc1NS(=O)(=O)c1ccc([N+](=O)[O-])cc1	28.5%	inhibition (LX-2 [2]): Active
O=[N+]([O-])c1cccc(S(=O)(=O)Nc2ccccc2CNc2ccc(F)c(Cl)c2)c1	24.1%	–
Cc1ccc(S(=O)(=O)Nc2ccccc2CNc2cc(Cl)c(Cl)c(Cl)c2)cc1	3.4%	–
O=S(=O)(Nc1ccccc1CNc1cc(Cl)c(Cl)c(Cl)c1)c1ccc(Cl)cc1	31.7%	–
COc1ccc(C(F)(F)F)cc1NC(=O)Nc1ccccc1NS(=O)(=O)c1ccc([N+](=O)[O-])cc1	21.5%	–
O=[N+]([O-])c1ccc(S(=O)(=O)Nc2ccccc2CNc2cc(Cl)c(Cl)c(Cl)c2)cc1	48.7%	inhibition (LX-2 [2]): Active; inhibition (LX-2 [3]): Active; inhibition (LX-2 [4]): Active; inhibition (LX-2 [5]): Active; inhibition (LX-2 [6]): Active
O=C(Nc1ccc(C(F)(F)F)cc1)Nc1ccccc1NS(=O)(=O)c1cccc([N+](=O)[O-])c1	17.8%	–
O=C(Nc1cc(C(F)(F)F)ccc1Cl)Nc1ccccc1NS(=O)(=O)c1ccc([N+](=O)[O-])cc1	39.4%	–
O=C(Nc1ccccc1NS(=O)(=O)c1cccc([N+](=O)[O-])c1)c1ccc(F)c(Cl)c1	37.1%	–
CC[C@H]1[C@@H](O)[C@@H]2[C@H](CC[C@]3(C)[C@@H]([C@H](C)CCC(=O)O)CC[C@@H]23)[C@@]2(C)CC[C@@H](O)C[C@@H]12 [OBETICHOLIC ACID]	7.9%	–
O=C(Nc1ccc(Cl)c(Cl)c1)Nc1ccccc1NS(=O)(=O)c1cccc([N+](=O)[O-])c1	21.6%	–
O=S(=O)(Nc1ccccc1CNc1cc(Cl)c(Cl)c(Cl)c1)c1cccc(C(F)(F)F)c1	37.3%	–
O=C(Nc1ccccc1NS(=O)(=O)c1cccc([N+](=O)[O-])c1)c1cc(Cl)ccc1Cl	24.6%	–
O=[N+]([O-])c1ccc(S(=O)(=O)Nc2ccccc2CNc2cc(Cl)ccc2Cl)cc1	32.3%	inhibition (LX-2 [2]): Active; inhibition (LX-2 [3]): Active; inhibition (LX-2 [4]): Active; inhibition (LX-2 [5]): Active; inhibition (LX-2 [6]): Active
COc1ccc(NC(=O)Nc2ccccc2NS(=O)(=O)c2ccc([N+](=O)[O-])cc2)cc1	14.5%	–
O=C(Nc1ccc(C(F)(F)F)cc1)Nc1ccccc1NS(=O)(=O)c1ccc([N+](=O)[O-])cc1	21.3%	–
O=C(Nc1cccc(C(F)(F)F)c1)Nc1ccccc1NS(=O)(=O)c1cccc([N+](=O)[O-])c1	22.8%	–
COc1cccc(S(=O)(=O)Nc2ccccc2NC(=O)c2cc(Cl)c(Cl)c(Cl)c2)c1	1.5%	–
Cc1ccc(NCc2ccccc2NS(=O)(=O)c2cccc([N+](=O)[O-])c2)cc1	14.7%	–
O=C(Nc1ccc(Cl)cc1)Nc1ccccc1NS(=O)(=O)c1cccc([N+](=O)[O-])c1	21.9%	–
O=C(Nc1ccc(Cl)cc1)Nc1ccccc1NS(=O)(=O)c1ccc([N+](=O)[O-])cc1	23.6%	–
O=C(Nc1ccc(Cl)cc1Cl)Nc1ccccc1NS(=O)(=O)c1cccc([N+](=O)[O-])c1	29.8%	–
COc1cccc(S(=O)(=O)Nc2ccccc2NC(=O)Nc2cc(Cl)c(Cl)c(Cl)c2)c1	16.9%	–
O=C(Nc1ccccc1NS(=O)(=O)c1cccc([N+](=O)[O-])c1)c1ccc(Cl)cc1Cl	27.9%	–

Structure (SMILES)	inhibition at 25 µM [1]	other results
O=C(Nc1ccccc1NS(=O)(=O)c1cccc([N+](=O)[O-])c1)c1ccc(Cl)c(Cl)c1	30.9%	–
O=C(O[C@@H]1Cc2c(O)cc(O)cc2O[C@@H]1c1cc(O)c(O)c(O)c1)c1cc(O)c(O)c(O)c1 [EPIGALOCATECHIN GALLATE]	25.3%	–
COc1ccc(C(=O)Nc2ccccc2NS(=O)(=O)c2cccc([N+](=O)[O-])c2)cc1	33.6%	–
O=C(Nc1cccc(C(F)(F)F)c1)Nc1ccccc1NS(=O)(=O)c1ccc([N+](=O)[O-])cc1	22.9%	–
COc1cccc(NCc2ccccc2NS(=O)(=O)c2cccc([N+](=O)[O-])c2)c1	23.2%	–
COc1cccc(S(=O)(=O)Nc2ccccc2CNc2cc(Cl)c(Cl)c(Cl)c2)c1	11.9%	–
Cc1cccc(S(=O)(=O)Nc2ccccc2NC(=O)c2cc(Cl)c(Cl)c(Cl)c2)c1	15.3%	–
O=[N+]([O-])c1cccc(S(=O)(=O)Nc2ccccc2CNc2cc(Cl)c(Cl)c(Cl)c2)c1	42.3%	inhibition (LX-2 [2]): Active
Cc1cccc(S(=O)(=O)Nc2ccccc2NC(=O)Nc2cc(Cl)c(Cl)c(Cl)c2)c1	24.9%	–
Cc1cccc(S(=O)(=O)Nc2ccccc2CNc2cc(Cl)c(Cl)c(Cl)c2)c1	2.2%	–
O=C(Nc1ccc(Cl)cc1Cl)Nc1ccccc1NS(=O)(=O)c1cccc(OC(F)(F)F)c1	26.2%	–
O=[N+]([O-])c1ccc(S(=O)(=O)Nc2ccccc2CNc2cc(F)ccc2Cl)cc1	26%	inhibition (LX-2 [3]): Active; inhibition (LX-2 [4]): Active; inhibition (LX-2 [5]): Active; inhibition (LX-2 [6]): Active
O=S(=O)(Nc1ccccc1CNc1cc(Cl)c(Cl)c(Cl)c1)c1ccc(C(F)(F)F)cc1	42.4%	–
C=C1C(=O)O[C@@H]2/C=C(\C)CC/C=C(\C)CC[C@@H]12 [COSTUNOLIDE]	45.4%	–
COc1ccc(NC(=O)Nc2ccccc2NS(=O)(=O)c2cccc([N+](=O)[O-])c2)cc1	25.4%	–
O=C(Nc1ccc(Cl)cc1Cl)Nc1ccccc1NS(=O)(=O)c1ccc([N+](=O)[O-])cc1	25.8%	–
O=C(Nc1ccccc1NS(=O)(=O)c1ccc([N+](=O)[O-])cc1)c1cc(Cl)ccc1Cl	26.5%	–
O=[N+]([O-])c1ccc(S(=O)(=O)Nc2ccccc2CNc2ccc(F)c(Cl)c2)cc1	34.2%	–
O=S(=O)(Nc1ccccc1CNc1cc(Cl)c(Cl)c(Cl)c1)c1cccc(Cl)c1	33.4%	–
O=C(Nc1cc(C(F)(F)F)ccc1Cl)Nc1ccccc1NS(=O)(=O)c1cccc([N+](=O)[O-])c1	21.3%	–
O=C(Nc1ccccc1NS(=O)(=O)c1ccc([N+](=O)[O-])cc1)c1ccc(Cl)c(Cl)c1	49.3%	inhibition (LX-2 [2]): Active; inhibition (LX-2 [3]): Active; inhibition (LX-2 [4]): Active; inhibition (LX-2 [5]): Active; inhibition (LX-2 [6]): Active
O=C(Nc1ccccc1NS(=O)(=O)c1ccc([N+](=O)[O-])cc1)c1ccc(Cl)cc1Cl	33%	–
O=S(=O)(Nc1ccccc1CNc1cc(Cl)c(Cl)c(Cl)c1)c1ccc(OC(F)(F)F)cc1	42.4%	–
O=[N+]([O-])c1cccc(S(=O)(=O)Nc2ccccc2CNc2cc(Cl)ccc2Cl)c1	40%	–
O=S(=O)(Nc1ccccc1CNc1cc(Cl)c(Cl)c(Cl)c1)c1cccc(OC(F)(F)F)c1	33.5%	–
COc1ccc(S(=O)(=O)Nc2ccccc2CNc2cc(Cl)c(Cl)c(Cl)c2)cc1	1.2%	–

Reference: ChEMBL document CHEMBL5257100, “Discovery and development of benzene sulfonamide derivatives as anti-hepatic fibrosis agents” (Bioorg Med Chem Lett, 2023)
